From ChEMBL document CHEMBL4627268, “Development of a potent and orally active activator of adenosine monophosphate-activated protein kinase (AMPK), ASP4132, as a clinical candidate for the treatment of human cancer” (Bioorg Med Chem, 2020)

Key:
[1] = Intrinsic clearance in human liver microsomes at 0.1 to 0.2 umol/L incubated for 30 mins in presence of NADPH by LC-MS/MS analysis; format: ADME, Microsome; conditions: read-out: CLH
[2] = AUC (0 to 24 hrs) in Sprague-Dawley rat at 1 mg/kg, iv by LC-MS/MS analysis; format: ADME, organism-based; parameters: time < 24 hr, dose 1 mg/kg, route intravenous; conditions: in vivo
[3] = Elimination half-life in Sprague-Dawley rat at 1 mg/kg, iv by LC-MS/MS analysis; format: ADME, organism-based; conditions: in vivo, read-out: beta t1/2 (converted)
[4] = Volume of distribution at steady state in Sprague-Dawley rat at 1 mg/kg, iv by LC-MS/MS analysis; format: ADME, organism-based; conditions: in vivo, read-out: Vdss
[5] = Total clearance in Sprague-Dawley rat at 1 mg/kg, iv by LC-MS/MS analysis; format: ADME, organism-based; conditions: in vivo
[6] = AUC (0 to 24 hrs) in Sprague-Dawley rat at 1 mg/kg, po by LC-MS/MS analysis; format: ADME, organism-based; parameters: time < 24 hr, dose 1 mg/kg, route oral; conditions: in vivo
[7] = Cmax in Sprague-Dawley rat at 1 mg/kg, po by LC-MS/MS analysis; format: ADME, organism-based; parameters: dose 1 mg/kg, route oral; conditions: in vivo
[8] = Tmax in Sprague-Dawley rat at 1 mg/kg, po by LC-MS/MS analysis; format: ADME, organism-based; conditions: in vivo
[9] = Oral bioavailability in Sprague-Dawley rat at 1 mg/kg by LC-MS/MS analysis; format: ADME, organism-based; conditions: in vivo
[10] = Drug metabolism in Sprague-Dawley rat hepatocytes assessed as esterase-mediated anilide hydrolysis; format: ADME, cell-based; conditions: isolated protein

| Structure (SMILES) | CLint scaled [1] [L/h/kg] | AUC(0-t) at 24 h [2] [µg·h/mL] | half-life [3] [h] | Vd [4] [L/kg] | clearance [5] [L/h/kg] | AUC(0-t) at 24 h [6] [µg·h/mL] | Cmax [7] [µg/mL] | Tmax [8] [h] | bioavailability [9] [%] | Drug metabolism [10] |
| --- | --- | --- | --- | --- | --- | --- | --- | --- | --- | --- |
| COc1ccc(CN2CCC(C(=O)Nc3ccc(C(=O)N4CCN(Cc5ccc(C(F)(F)F)cc5)CC4)cc3)CC2)cn1 | 4.62 | 0.123 | 3.5 | 50.9 | 8.22 | 0.0133 | 0.0019 | 0.5 | 11 | Metabolite_Detected |
| COc1ccc(CN2CCC(c3ccc4[nH]c(C(=O)N5CCN(Cc6ccc(C(F)(F)F)cc6)CC5)nc4c3)CC2)cn1.Cc1ccc(S(=O)(=O)O)cc1.Cc1ccc(S(=O)(=O)O)cc1 | 3.66 | 0.887 | 3.6 | 4.6 | 1.14 | 0.705 | 0.072 | 1.7 | 80 | – |
| O=C(Nc1ccc(C(=O)N2CCN(Cc3ccc(C(F)(F)F)cc3)CC2)cc1)N1CCN(Cc2ccc(C(F)(F)F)cc2)CC1 | 9.48 | – | – | – | – | – | – | – | – | – |
| COc1ccc(CN2CCN(C(=O)Nc3ccc(C(=O)N4CCN(Cc5ccc(C(F)(F)F)cc5)CC4)cc3)CC2)cc1 | 11.1 | – | – | – | – | – | – | – | – | – |
